This note sets out measurements from PMC9960307, “Design, Synthesis, Biological Evaluation, and Molecular Dynamics Simulation of Influenza Polymerase PB2 Inhibitors” (Molecules, 2023).

The term Kd denotes the equilibrium constant for the complex coming apart. A lower Kd goes with higher affinity. A word on the IC50: it is the concentration that inhibits the measured activity by half. Broadly, the EC50 is the midpoint of the concentration-response curve. The term melting point denotes the temperature of the solid-liquid transition.

Data set [1] can be described thus: in vitro. The note with it: human, microsomes, pH 7.4, Microsome T1/2, Human, human liver microsomes, 1 μM. (In general: Microsomes from liver hold many membrane-bound enzymes, among them those of drug oxidation.)
Data set [2] can be described thus: in vitro. The note with it: rat, microsomes, pH 7.4, Microsome T1/2, Rat, rat liver microsomes, 1 μM.
For data set [3], the target named is T1, influenza A/WSN/1933 (H1N1) PB2 CBD (aa.318-486) (Influenza A virus, UniProt P03427).
T1 construct: influenza A/WSN/1933 (H1N1) PB2 CBD (aa.318-486); purchased
Kind of data set: SPR competitive binding assay (Biacore T200). The protocol:
Biomolecular interaction analysis based on surface plasmon resonance (SPR) assays was performed using VX-787 and comp. I and II at concentrations ranging from 20 to 0.156 µM to investigate their competitive binding affinities with PB2 (Table 1).
Commercial companies express and purify HIN1 PB2 CBD protein, which provides influenza A/WSN/1933 (H1N1) PB2 CBD (aa.318-486). Using a Biacore T200 (GE Healthcare) and a running buffer of which contains a solution of 1 × PBS-P + 0.02 M phosphate buffer, 2.7 mM KCl, 0.137 M NaCl, and 0.05% Tween 20, H1N1 PB2 was immobilized to a level of 4900 response units (RUs). Serial dilutions of small molecules were injected, ranging in concentration from 20 µM to 0.156 µM. GE Healthcare’s Biacore Evaluation Software was used to fit the resulting data to the affinity binding model.

Data set [4] is described as follows: in vitro. The note with it: dog.
The target in another data set is T2, aldehyde oxidase (AO) (Homo sapiens, UniProt Q06278).
T2 construct: Human liver cytosolic protein was incubated with VX-787, comp; I, and comp; II; from tissue; host or cells: pooled human liver (hepatocyte) cytosol
T2 sequence (Q06278 1-1338): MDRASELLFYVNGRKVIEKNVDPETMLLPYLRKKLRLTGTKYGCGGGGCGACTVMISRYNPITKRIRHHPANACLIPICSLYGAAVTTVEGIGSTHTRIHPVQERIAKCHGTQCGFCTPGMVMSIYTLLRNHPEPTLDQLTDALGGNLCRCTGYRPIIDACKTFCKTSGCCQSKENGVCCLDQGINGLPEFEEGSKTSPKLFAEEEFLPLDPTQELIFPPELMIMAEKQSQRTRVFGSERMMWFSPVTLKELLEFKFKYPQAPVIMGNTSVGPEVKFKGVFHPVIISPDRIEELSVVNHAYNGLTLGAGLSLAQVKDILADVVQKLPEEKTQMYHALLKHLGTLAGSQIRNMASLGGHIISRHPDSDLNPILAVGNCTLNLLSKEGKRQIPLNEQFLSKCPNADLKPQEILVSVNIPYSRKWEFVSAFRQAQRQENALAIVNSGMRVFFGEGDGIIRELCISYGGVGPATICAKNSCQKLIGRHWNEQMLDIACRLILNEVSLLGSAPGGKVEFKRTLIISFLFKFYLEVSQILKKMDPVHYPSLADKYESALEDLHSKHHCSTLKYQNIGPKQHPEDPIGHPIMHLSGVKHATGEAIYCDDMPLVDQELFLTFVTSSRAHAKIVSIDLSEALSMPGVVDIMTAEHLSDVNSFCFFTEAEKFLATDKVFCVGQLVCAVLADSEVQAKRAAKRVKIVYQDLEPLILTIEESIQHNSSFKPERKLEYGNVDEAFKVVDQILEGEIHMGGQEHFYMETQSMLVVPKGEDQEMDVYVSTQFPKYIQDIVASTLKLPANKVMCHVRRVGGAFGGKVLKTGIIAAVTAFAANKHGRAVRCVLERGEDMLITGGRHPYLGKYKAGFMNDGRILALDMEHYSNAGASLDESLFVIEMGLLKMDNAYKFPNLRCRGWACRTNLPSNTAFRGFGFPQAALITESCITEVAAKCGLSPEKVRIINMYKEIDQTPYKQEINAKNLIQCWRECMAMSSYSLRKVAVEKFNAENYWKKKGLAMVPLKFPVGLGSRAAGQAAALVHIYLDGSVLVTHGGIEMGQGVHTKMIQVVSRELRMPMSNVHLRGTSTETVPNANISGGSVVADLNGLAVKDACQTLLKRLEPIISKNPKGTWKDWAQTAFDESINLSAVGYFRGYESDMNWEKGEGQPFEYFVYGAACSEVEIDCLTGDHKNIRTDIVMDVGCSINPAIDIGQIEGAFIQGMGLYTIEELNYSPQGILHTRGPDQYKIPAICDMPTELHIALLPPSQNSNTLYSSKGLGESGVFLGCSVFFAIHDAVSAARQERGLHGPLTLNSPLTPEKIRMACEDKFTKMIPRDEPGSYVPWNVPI
Kind of data set: AO-mediated metabolic stability in human liver cytosol with/without raloxifene. It is filed as in vitro ADME.

Data set [5] has as its system influenza virus A/Puerto Rico/8/1934 (H1N1). Kind of data set: Cytopathic effect (CPE) inhibition assay, H1N1. It is filed as cell-based, influenza A/Puerto Rico/8/1934 (H1N1). The note with it: MDCK, 72 h, read-out: H1N1 IC50.
Another data set deals with influenza virus. Kind of data set: CPE inhibition assay as summarised in the conclusions (strain not stated). The class given is cell-based. The note with it: unidentified influenza virus.
Data set [6] relates to influenza virus A/Hong Kong/8/68 (H3N2). Kind of data set: Cytopathic effect (CPE) inhibition assay, H3N2. The class given is cell-based, influenza A/Hong Kong/8/68 (H3N2). The note with it: MDCK cells, MOI 0.005, 72 h, CellTiter-Glo. A general note: Protection from cytopathic effect is a common read-out in antiviral testing.
The conditions of data set [7]: human, 1 μM, pH 7.4.

T1 sequence (P03427 318-486): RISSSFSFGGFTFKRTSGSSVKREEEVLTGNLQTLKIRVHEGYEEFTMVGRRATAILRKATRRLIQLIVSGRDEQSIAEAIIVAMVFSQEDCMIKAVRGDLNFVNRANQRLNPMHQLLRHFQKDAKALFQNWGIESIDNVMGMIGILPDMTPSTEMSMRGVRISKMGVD

Compound `N=c1[nH]c2ncc(F)cc2n1-c1ncc(F)c(NC2C3CCC(CC3)C2C(=O)O)n1` [comp. II, (1R,2S,3S,4R)-3-((2-(2-amino-6-fluoro-1H-imidazo[4,5-b]20yridine-1-yl)-5-fluoropyrimidin-4-yl)amino)bicyclo[2.2.2]octane-2-carboxylic acid] showed a melting point of 315 to 317 °C. The compound further came in with a half-life in “in vitro [1]” of over 13.3 h. For the same compound, the half-life in the data set “in vitro [2]” was over 13.3 h. The compound further gave a Kd in data set [3] of 1670 nM. Also, in the data set “in vitro [4]”, the CC50 at 72 h was over 200000 nM. The “sensitivity to aldehyde oxidase (AO substrate or not)” value at aldehyde oxidase (AO) (human liver cytosol, in words) is on record as “nearly unaffected”. Also, the half-life at 1 μM at aldehyde oxidase (AO) (pooled liver (hepatocyte) cytosol, pH 7.4, human liver cytoplasm, read-out: Cytoplasm T1/2, Human) is over 13.3 h. In addition, on aldehyde oxidase (AO) (with AO inhibitor raloxifene, 0 min), the “Residual percentage in 0.5mg/ml human liver cytoplasm” value (shortened to “Residual percentage”) came to 100.00±8.74%. Further, at aldehyde oxidase (AO) (with AO inhibitor raloxifene, 15 min), the “Residual percentage” value came out at 110.60±4.82%. Further, the “Residual percentage” value on aldehyde oxidase (AO) (with AO inhibitor raloxifene, 30 min) was found to be 107.60±7.80%. Further, at aldehyde oxidase (AO) (with AO inhibitor raloxifene, 60 min), the “Residual percentage” value was determined as 109.12±6.67%. The “Residual percentage” value at aldehyde oxidase (AO) (without raloxifene, 0 min) is recorded as 100.00±0.44%. In addition, the “Residual percentage” value at aldehyde oxidase (AO) (without raloxifene, 15 min) is given as 107.07±16.04%. For the same compound, the “Residual percentage” value at aldehyde oxidase (AO) (without raloxifene, 30 min) was determined as 108.17±9.51%. The “Residual percentage” value on aldehyde oxidase (AO) (without raloxifene, 60 min) is given as “barely changed”. In addition, on aldehyde oxidase (AO) (without raloxifene, 60 min, listed as Comp II), the “Residual percentage” value was found to be 103.11±2.84%. In addition, in data set [5], the IC50 was 90 ± 50 nM. The compound also had a 50% effective concentration (EC50) with influenza virus of 90 nM. In data set [6], this compound yielded an IC50 of 70 ± 30 nM. Also, the “Microsome Clh, Human” value in [7] was determined as 0.46 mL/min/kg.
